Measurements as given in patent publication US20240317772A1, “SESQUITERPENE DERIVATIVE AND PHARMACEUTICAL COMPOSITION THEREOF, AND THEIR PREPARATION METHODS AND USE” (TIANJIN JIKUN MEDICAL TECHNOLOGY CO., LTD., priority 2022, published 2024).

Key:
Type in all cases: in vivo
[1] = test system: Tumor cells B16F10; assay: Anti-tumor effect in B16F10 tumor-bearing mice (alone and combined with PD-1 monoclonal antibody); conditions: female C57BL/6 mice; by tumor weight vs control group; compounds 150 mg/kg orally every day; PD-1 monoclonal antibody 10 mg/kg intraperitoneally every three days; combination: both
Excerpt: (§1) Tumor cells B16F10, LLC, PAN02, H22, CT26, MFC, and GL261 (purchased from Biological Industries) in good growth status were collected, separately washed twice with 1×PBS, and a total number of the cells was counted with a cell counter, and a cell solution was separately diluted with 1×PBS to obtain a cell suspension of 1×10^7 cells/mL. The mice used in this experiment were purchased from Beijing Vital River Laboratory (Beijing, China). The above different types of tumor cells were inoculated into different types of mice to produce corresponding tumor-bearing mice, and the correspondences are as follows. Tumor cell B16F10 corresponds to female mice C57BL/6 aged 6-8 weeks; Tumor cell LLC corresponds to female mice Balb/c aged 6-8 weeks; Tumor cell PAN02 corresponds to female mice C57BL/6J aged 6-8 weeks; Tumor cell H22 corresponds to female mice C57BL/6 aged 6-8 weeks; Tumor cell CT26 corresponds to female mice Balb/c aged 6-8 weeks; Tumor cell MFC corresponds to female mice BALB/c-nu/nu aged 6-8 weeks; and Tumor cell GL261 corresponds to female mice C57BL/6 aged 6-8 weeks. […] After the experiment was completed, the mice were euthanized, tumor tissues thereof were collected, and volume and weight of the tumor tissues were tested to calculate a tumor inhibition rate. Tumor inhibition rate=(1-tumor weight of treatment group/tumor weight of control group)×100%

[2] = test system: Tumor cells LLC; assay: Anti-tumor effect in LLC tumor-bearing mice (alone and combined with PD-1 monoclonal antibody); conditions: female Balb/c mice; by tumor weight vs control group; compounds 150 mg/kg orally every day; PD-1 monoclonal antibody 10 mg/kg intraperitoneally every three days; combination: both
Excerpt: as §1

[3] = test system: Tumor cells PAN02; assay: Anti-tumor effect in PAN02 tumor-bearing mice (alone and combined with PD-1 monoclonal antibody); conditions: for Tumor inhibition rate PAN02: female C57BL/6J mice, by tumor weight vs control group, compounds 150 mg/kg orally every day, PD-1 monoclonal antibody 10 mg/kg intraperitoneally every three days, combination: both
Excerpt: as §1

[4] = test system: Tumor cells H22; assay: Anti-tumor effect in H22 tumor-bearing mice (alone and combined with PD-1 monoclonal antibody); conditions: female C57BL/6 mice; by tumor weight vs control group; compounds 150 mg/kg orally every day; PD-1 monoclonal antibody 10 mg/kg intraperitoneally every three days; combination: both
Excerpt: as §1

[5] = test system: Tumor cells CT26; assay: Anti-tumor effect in CT26 tumor-bearing mice (alone and combined with PD-1 monoclonal antibody); conditions: female Balb/c mice; by tumor weight vs control group; compounds 150 mg/kg orally every day; PD-1 monoclonal antibody 10 mg/kg intraperitoneally every three days; combination: both
Excerpt: as §1

[6] = test system: Tumor cells MFC; assay: Anti-tumor effect in MFC tumor-bearing mice (alone and combined with PD-1 monoclonal antibody); conditions: female BALB/c-nu/nu mice; by tumor weight vs control group; compounds 150 mg/kg orally every day; PD-1 monoclonal antibody 10 mg/kg intraperitoneally every three days; combination: both
Excerpt: as §1

[7] = test system: Tumor cells GL261; assay: Anti-tumor effect in GL261 tumor-bearing mice (alone and combined with PD-1 monoclonal antibody); conditions: for Tumor inhibition rate GL261: female C57BL/6 mice, by tumor weight vs control group, compounds 150 mg/kg orally every day, PD-1 monoclonal antibody 10 mg/kg intraperitoneally every three days, combination: both
Excerpt: as §1

[8] = combined administration with the PD-1 monoclonal antibody (text summary of Table 1)

Row | SMILES | Tumor inhibition rate B16F10 [1] | Tumor inhibition rate LLC [2] | Tumor inhibition rate PAN02 [3] | Tumor inhibition rate H22 [4] | Tumor inhibition rate CT26 [5] | Tumor inhibition rate MFC [6] | Tumor inhibition rate GL261 [7] | tumor inhibition rate, PAN02 cells [3, 8] | tumor inhibition rate, GL261 cells [7, 8]
1 | CN(CCO)CC1C(=O)O[C@@H]2C[C@@]3(C)CC[C@@H](O)[C@]4(CO4)[C@@H]3C[C@H]12.O=C(O)/C=C/C(=O)O (stereo partly drawn) [Compound 4] | 23% | 24% | 22% | 26% | 31% | 27% | 23% |  | 
2 | C[C@]12CC[C@@H](O)[C@]3(CO3)[C@@H]1C[C@@H]1C(CN(CCO)CCO)C(=O)O[C@@H]1C2.O=C(O)/C=C/C(=O)O (stereo partly drawn) [Compound 5] | 24% | 26% | 19% | 31% | 52% | 44% | 19% |  | 
3 | CN(CCCO)CC1C(=O)O[C@@H]2C[C@@]3(C)CC[C@@H](O)[C@]4(CO4)[C@@H]3C[C@H]12.O=C(O)/C=C/C(=O)O (stereo partly drawn) [Compound 6] | 31% | 29% | 31% | 39% | 41% | 52% | 29% | up to 89% | up to 89%
4 | CN(C)CC1C(=O)O[C@@H]2C[C@@]3(C)CC[C@@H](O)[C@]4(CO4)[C@@H]3C[C@H]12.O=C(O)/C=C/C(=O)O (stereo partly drawn) [Control compound 7, reference compound] | 41% | 44% | 43% | 52% | 60% | 38% | 39% |  | 
